Measurements from paper PMC5432742, “Vasorelaxing and antihypertensive activities of synthesized peptides derived from computer-aided simulation of pepsin hydrolysis of yam dioscorin” (Botanical Studies, 2014).
Like-named read-outs stand apart in the source and are kept apart here.

Key:
ACE (rabbit lung) = test: ACE inhibitory assay screening (FAPGG substrate, absorbance at 345 nm); assay type: biochemical; conditions: peptide 40 μM; 0.5 mM FAPGG in 50 mM Tris-HCl pH 7.5, 0.3 M NaCl; 90 sec, room temperature
Protocol: The ACE inhibitory activity was measured following the previous reports with some modifications (Hsu et al. [2002]). Each synthesized peptide was dissolved in DMSO to 4 mM as stocks. The 1 ml, 0.5 mM FAPGG (dissolved in 50 mM Tris–HCl buffer, pH 7.5, containing 0.3 M NaCl) was mixed with 12.2 μl peptide solution, and then twenty μl ([…]) of commercial ACE (stock solution, 1U/ ml) was added. The 0.1% DMSO solution was used instead of sample solution for blank experiments (ΔAblank/min). The decreased absorbance at 345 nm (ΔAsample/min) was recorded during 90 sec at room temperature. The ACE inhibition (%) was calculated as followed: [1 - (ΔAsample/min ÷ ΔAblank/min)] × 100.
Figure 1 ACE inhibition by 23 synthesized peptides (40 μM) derived from a computer-aided simulation of pepsin hydrolysis of yam dioscorin. The 0.1% DMSO solution was used instead of sample solution for blank experiments (ΔAblank/min). The decreased absorbance at 345 nm (ΔAsample/min) was recorded during 90 sec at room temperature. The ACE inhibition (%) was calculated as followed: [1 - (ΔAsample/min ÷ ΔAblank/min)] × 100. The synthesized peptides included (1) KTCGNGME, (2) PPCSE, (3) CDDRVIRTPLT, (4) KTCGY, (5) PPCTE, (6) RDNGVIF, (7) KRIHF, (8) RRDY, (9) RSVF, (10) PTNF, (11) GISW, (12) MGSF, (13) VSIL, (14) HSPA, (15) DPF, (16) RY, (17) RF, (18) NW, (19) RL, (20) GVI, (21) GSL, (22) SY, and (23) GPA. […]

[1] = test system: spontaneously hypertensive rats (SHRs); test: Antihypertensive effect in SHRs after a single oral administration (tail-cuff blood pressure); assay type: in vivo, rat; conditions: SHR, N = 6
Protocol: Experimental procedures were reviewed and approved by the Institutional Animal Care and Use Committee of Taipei Medical University (LAC-95-0076, LAC-97-0117, and LAC-100-0038). Male SHRs (18–28 weeks old; from National Laboratory Animal Center, Taipei, Taiwan) were housed individually in steel cages kept at 24°C under a 12-h light–dark cycle, with free access to water and a standard mouse/rat chow (Prolab® RMH2500, 5P14 Diet, PMI Nutrition International Brentwood, MO, USA). SHRs were randomly divided into 4 groups (N = 6 of each group), KTCGY or KRIHF at concentration of 10 mg/kg and 20 mg/kg was orally administered to the SHRs, and the SBP were measured after 0, 2, 4, 6, 8, and 24 h by using an indirect tail-cuff blood pressure meter (BP98-A, Softron, Tokyo, Japan). Distilled water (0.5 ml) was administered to the SHRs in the blank group. The captopril (10 mg/kg) was used as the positive control.
Figure 3 Antihypertensive activity of (A) KTCGY and (B) KRIHF on systolic blood pressure of spontaneously hypertensive rats (SHRs). KTCGY or KRIHF at concentration of 10 mg/kg and 20 mg/kg was orally administered to the SHRs (6 rats/group), and the SBP were measured after 0, 2, 4, 6, 8, and 24 h by using an indirect tail-cuff blood pressure meter (BP98-A, Softron, Tokyo, Japan). Distilled water (0.5 ml) was administered to the SHRs in the blank group. The captopril (10 mg/kg) was used as the positive control.

[2] = test system: endothelium-denuded rat thoracic aortic rings; test: Relaxation of phenylephrine-induced tension in endothelium-denuded rat thoracic aortic rings ex vivo; set-up: species or system Sprague-Dawley rat; conditions: PE 0.3 μM; for aortic ring relaxation in endothelium-denuded rings (in words): cumulative 0.1 to 100 μM; for PE-induced endothelium-denuded aortic ring tension (PE plateau = 100%): 100 μM test substance, endothelium-denuded rings
Protocol: (§1) Effects of four peptides and captopril on vascular tension were examined following the previous method (Wang et al. [2001]). Male Sprague–Dawley rats were killed by decapitation, and sections of the thoracic aorta between the aortic arch and the diaphragm were excised carefully and placed in a Petri dish with oxygenated Krebs’ buffer (120 mM NaCl, 4.5 mM KCl, 2.5 mM CaCl2, 1 mM MgSO4, 27 mM NaHCO3, 1 mM KH2PO4, 10 mM glucose, pH 7.4, with 95% O2, 5% CO2) and gently dissected free of fat and connective tissue. The endothelium was removed by gently rubbing the intimal layer of the vessel with a wire. The isolated aortic rings, 3 to 4 mm in length with or without the endothelium, were fixed isometrically in organ chambers under passive tension (1.8 g) for 60 min. Changes in vascular tension were recorded with a polygraph (Gould, model 2400, Valley View, OH, USA) via a force displacement transducer (Grass FT03, Quincy, MA, USA). After equilibration, the near maximal concentration was induced by PE (0.3 μM). When the rings achieved a stable tension, the acetylcholine (3 μM) was added to the bath to assess endothelial integrity. The relaxing effects of KTCGY, KTCGYKTCGY, TCGYTCGY, KRIHF, and captopril on PE (0.3 μM) pre-contracted endothelium-intact or endothelium-denuded aortic rings were examined. When PE treatments reached a steady plateau (considered as 100%), KTCGY, KTCGYKTCGY, TCGYTCGY, KRIHF, and captopril were then tested at cumulative concentrations (0.1 to 100 μM) for their ability to induce aortic ring relaxations.
(§2) Figure 2 Vasorelaxing activity of endothelium-intact and endothelium-denuded SD rat aortic rings in phenylephrine-induced tensions. (A) KTCGY, (B) KTCGYKTCGY, (C) TCGYTCGY, (D) KRIHF, and (E) captopril on Data were expressed as mean ± S.E.

[3] = test system: spontaneously hypertensive rats (SHRs); test: Antihypertensive effect in SHRs after a single oral administration (tail-cuff blood pressure); assay type: in vivo, rat; conditions: 10 and 20 mg/kg single oral dose, SHR; data not shown
[4] = test system: endothelium-intact rat thoracic aortic rings; test: Relaxation of phenylephrine-induced tension in endothelium-intact rat thoracic aortic rings ex vivo; set-up: species or system Sprague-Dawley rat
Protocol: as §1, §2

[5] = trolox equivalents (TE); ref Hernández-Ledesma et al. 2005; cited from earlier work
ACE = conditions: read-out: ACE inhibition IC50, cited from earlier work
Source text: The untreated high blood pressure is considered to be the central factor in stroke which accounts approximately 33% deaths (Mark and Davis [2000]). There are several classes of pharmacological agents which have been used in the treatment of hypertension, and one class of antihypertensive drugs known as angiotensin I converting enzyme (ACE) inhibitors is associated with a low rate of adverse side effects and is the preferred class of antihypertensive agents when treating patients with concurrent secondary diseases or cardiovascular diseases (Zaman et al. [2002]).

[6] = test system: spontaneously hypertensive rats (SHRs); conditions: ref Fujita et al. 2000; cited from earlier work
Source text: The untreated high blood pressure is considered to be the central factor in stroke which accounts approximately 33% deaths (Mark and Davis [2000]). There are several classes of pharmacological agents which have been used in the treatment of hypertension, and one class of antihypertensive drugs known as angiotensin I converting enzyme (ACE) inhibitors is associated with a low rate of adverse side effects and is the preferred class of antihypertensive agents when treating patients with concurrent secondary diseases or cardiovascular diseases (Zaman et al. [2002]). ACE (peptidyldipeptide hydr ...

[7] = 100 μM test substance, PE 0.3 μM, endothelium-intact rings, mean ± S.E. (Figure 2), SEM

KRIHF [penta-peptide, residues 118–122 of dioscorin A and dioscorin B]
ACE inhibition (%) (ACE (rabbit lung)): higher than 50%
average reduced SBP ([1]; 10 mg/kg single oral dose, 2-h): 17.30 mmHg
average reduced SBP ([1]; 10 mg/kg single oral dose, 4-h): 21.95 mmHg
average reduced SBP ([1]; 10 mg/kg single oral dose, 6-h): 21.47 mmHg
average reduced SBP ([1]; 10 mg/kg single oral dose, 8-h): 16.65 mmHg
average reduced SBP ([1]; 20 mg/kg single oral dose, 2-h): 18.57 mmHg
average reduced SBP ([1]; 20 mg/kg single oral dose, 4-h): 19.64 mmHg
average reduced SBP ([1]; 20 mg/kg single oral dose, 6-h): 20.87 mmHg
average reduced SBP ([1]; 20 mg/kg single oral dose, 8-h): 8.99 mmHg
aortic ring relaxation in endothelium-denuded rings (in words) [2]: not endothelium-denuded
lowering of diastolic blood pressure (in words) [3]: not diastolic blood pressure
PE-induced aortic ring tension (PE plateau = 100%) ([4]; 10 μM test substance, PE 0.3 μM, endothelium-intact rings): 80.26 ± 7.82%
PE-induced aortic ring tension (PE plateau = 100%) [4, 7]: 19.19 ± 7.63%

KTCGYKTCGY [two-repeated KTCGY]
PE-induced endothelium-denuded aortic ring tension (PE plateau = 100%) [2]: 66.59 ± 14.84%
PE-induced aortic ring tension (PE plateau = 100%) [4, 7]: 46.05 ± 8.02%

N[C@@H](CS)C(=O)O [Cys]
oxygen radical absorbance capacity (ORAC) activity [5]: 0.1492 μmole TE/μmole

FFGRCVSP
IC50 (ACE; ref Fujita et al. 2000): 0.4 µM
reduction of blood pressure in SHRs (in words) [6]: none of them were effective

TCGYTCGY [two-repeated TCGY]
PE-induced endothelium-denuded aortic ring tension (PE plateau = 100%) [2]: 74.44 ± 15.13%
PE-induced aortic ring tension (PE plateau = 100%) [4, 7]: 43.52 ± 6.42%

N[C@@H](Cc1ccc(O)cc1)C(=O)O [Tyr]
oxygen radical absorbance capacity (ORAC) activity [5]: 1.574 μmole TE/μmole

KTCGY [penta-peptide, residues 52–56 of dioscorin B]
ACE inhibition (%) (ACE (rabbit lung)): higher than 50%
average reduced SBP ([1]; 10 mg/kg single oral dose, 6-h): 24.17 mmHg
average reduced SBP ([1]; 10 mg/kg single oral dose, 8-h): 11.93 mmHg
average reduced SBP ([1]; 20 mg/kg single oral dose, 2-h): 24.20 mmHg
average reduced SBP ([1]; 20 mg/kg single oral dose, 4-h): 26.24 mmHg
average reduced SBP ([1]; 20 mg/kg single oral dose, 6-h): 31.03 mmHg
average reduced SBP ([1]; 20 mg/kg single oral dose, 8-h): 21.40 mmHg
aortic ring relaxation in endothelium-denuded rings (in words) [2]: not endothelium-denuded
lowering of diastolic blood pressure (in words) [3]: not diastolic blood pressure
PE-induced aortic ring tension (PE plateau = 100%) [4, 7]: 26.97 ± 7.48%

CSCC[C@H](N)C(=O)O [Met]
oxygen radical absorbance capacity (ORAC) activity [5]: 1.126 μmole TE/μmole

C[C@H](CS)C(=O)N1CCC[C@H]1C(=O)O [captopril, reference compound]
average reduced SBP ([1]; 10 mg/kg single oral dose, 2-h): 26.85 mmHg
average reduced SBP ([1]; 10 mg/kg single oral dose, 4-h): 24.97 mmHg
average reduced SBP ([1]; 10 mg/kg single oral dose, 6-h): 29.82 mmHg
average reduced SBP ([1]; 10 mg/kg single oral dose, 8-h): 24 mmHg
average reduced SBP ([1]; 10 mg/kg single oral dose, 24-h): 13.80 mmHg
aortic ring relaxation in endothelium-denuded rings (in words) [2]: not endothelium-denuded
PE-induced aortic ring tension (PE plateau = 100%) ([4]; 100 µM, SEM): 26.81 ± 5.54%

N[C@@H](Cc1ccccc1)C(=O)O [Phe]
oxygen radical absorbance capacity (ORAC) activity [5]: 0.0025 μmole TE/μmole

N[C@@H](Cc1c[nH]cn1)C(=O)O [His]
oxygen radical absorbance capacity (ORAC) activity [5]: 0.073 μmole TE/μmole

RADHPF [ovokinin (2–7), hexa-peptide isolated from chymotryptic ovalbumin hydrolysates]
IC50 (ACE; ref Matoba et al. 1999): > 1000 µM

N[C@@H](Cc1c[nH]c2ccccc12)C(=O)O [Trp]
oxygen radical absorbance capacity (ORAC) activity [5]: 4.649 μmole TE/μmole

ERKIKVYL
IC50 (ACE; ref Fujita et al. 2000): 1.2 µM
reduction of blood pressure in SHRs (in words) [6]: none of them were effective
